Laboratory results taken from PubChem BioAssay AID602165 (The Scripps Research Institute Molecular Screening Center, 2012).

What follows are compounds tested against Induced myeloid leukemia cell differentiation protein Mcl-1 (Homo sapiens) (UniProt Q07820) (assay: blockers of MCL1–BIM BH3 interaction – biochemical, fluorescence polarization, assay provider data, round 3, late-stage follow-up (AID 602165)). Conditions: GST-MCL1 / FITC-BIM-BH3 peptide fluorescence polarization;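 active means compounds whose IC50 for blocking MCL1 binding of the BIM peptide is 10 micromolar or lower; inactive means IC50 above 10 micromolar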.
Induced myeloid leukemia cell differentiation protein Mcl-1 (Homo sapiens), sequence (Q07820 whole entry, looked up): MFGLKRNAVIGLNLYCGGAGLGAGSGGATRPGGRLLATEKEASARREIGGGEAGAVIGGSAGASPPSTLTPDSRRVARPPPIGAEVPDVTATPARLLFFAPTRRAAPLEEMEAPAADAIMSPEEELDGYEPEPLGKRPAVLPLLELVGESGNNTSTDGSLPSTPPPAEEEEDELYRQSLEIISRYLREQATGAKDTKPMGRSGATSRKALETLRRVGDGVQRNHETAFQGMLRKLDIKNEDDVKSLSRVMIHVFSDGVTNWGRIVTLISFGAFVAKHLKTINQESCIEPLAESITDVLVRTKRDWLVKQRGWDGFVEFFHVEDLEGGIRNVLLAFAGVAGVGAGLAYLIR

IC50, active:
CN1CCN(C(c2ccc(F)cc2)c2ccc3cccnc3c2O)CC1 (stereo not drawn) 600 nM
Cc1ccnc(NC(c2cccs2)c2ccc3cccnc3c2O)c1 (stereo not drawn) 400 nM
CC(C)Oc1ccc(C(Nc2ccccn2)c2ccc3cccnc3c2O)cc1 (stereo not drawn) 1300 nM
OCCN1CCN(C(c2cccs2)c2ccc3cccnc3c2O)CC1 (stereo not drawn) 3300 nM
Oc1c(C(c2cccs2)N2CCCCC2)ccc2cccnc12 (stereo not drawn) 2500 nM
Oc1c(C(Nc2ccccn2)c2cccs2)ccc2cccnc12 (stereo not drawn) 600 nM
CCN1CCN(C(c2cccs2)c2ccc3cccnc3c2O)CC1 (stereo not drawn) 1600 nM
Oc1c(C(c2cccs2)N2CCN(c3ccccn3)CC2)ccc2cccnc12 (stereo not drawn) 500 nM
